According to US4337760A, “Method for the treatment of tumors with β-glucuronidase activity dependent pharmaceuticals” (Schwimmer; Adolf, priority 1979, dated 1982):

Legend:
β-glucuronidase [1] = test: Incubation with β-glucuronidase; format: biochemical
Experimental: The free acid form of the compound was formed by treating the 2,4-dinitrophenyl-methyl(tri-O-acetyl-β-D-glucopyranosyl bromide)-uronate with a one-half molar amount of barium hydroxide to produce the barium salt. This barium salt of the glucuronide precipitates as a white amorphous material. An equimolar solution of H2 SO4 releases the free glucuronide. Distillation of the supernatant yielded bright yellow-brown crystals having a melting point of 179°-180° C.

[2] = alkaline vs acid pH; cited from earlier work
β-glucuronidase [3] = conditions: cited from earlier work
[4] = Acute intravenous toxicity to rabbits, full scale test; format: in vivo, NZW rabbits; conditions: for acute median lethal intravenous dose (LD 50): 10% solution, 95% confidence limits, method of Weil
Experimental: (§1) NZW rabbits in the weight range of 2,000 to 3,200 g for females and 2,200 to 3,800 g for males were injected intravenously with mandelonitrile β-D-glucuronic acid solution. Rabbits injected with saline alone served as the control. The mandelonitrile β-D-glucuronic acid solution contained 10% mandelonitrile.
(§2) During the 14 day observation period a record was kept of all mortalities and signs of toxicity.
Dosing was then extended to larger groups of rabbits (5 males and 5 females per group) in order to locate the median lethal dose more precisely.
All the deaths of all the groups occurred within 3 hours after dosing.
The acute median lethal intravenous dose (LD 50) and its 95% confidence limints calculated by the method of Weil, C. S., 1952, Biometrics, 8:249, to rabbits of mandelonitrile-β-D-glucuronic acid 10% solution are calculated to be: […]

[5] = Acute intravenous toxicity to rabbits, range finding screen; format: in vivo, NZW rabbits; conditions: i.v.; for Mortality ratio: 14 day observation
Experimental: as §1, §2

trophoblastic cells = conditions: reported; cited from earlier work
[6] = in vivo; cited from earlier work

Compound: O=C(O)[C@H]1O[C@@H](Oc2ccc([N+](=O)[O-])cc2[N+](=O)[O-])[C@H](O)[C@@H](O)[C@@H]1O [2,4-dinitrophenol-β-D-glucuronic acid]
- product on incubation with β-glucuronidase (β-glucuronidase [1]): produced 2,4-dinitrophenol

Compound: Cc1cc(O)cc(C)c1Cl [4-chloro-3,5-xylanol]
- pH-dependent solubility [2]: water soluble at alkaline pH's and lipid-soluble at acid pH's

Compound: Oc1c(I)cc(Cl)c2cccnc12 [5-chloro-7-iodo-8-quinolinol]
- pH-dependent solubility [2]: water soluble at alkaline pH's and lipid-soluble at acid pH's

Compound: N#C[C@H](O[C@@H]1O[C@H](CO[C@@H]2O[C@H](CO)[C@@H](O)[C@H](O)[C@H]2O)[C@@H](O)[C@H](O)[C@H]1O)c1ccccc1 [amygdalin]
- splitting by the enzyme β-glucuronidase (β-glucuronidase [3]): cannot be split

Compound: N#CC(O[C@@H]1O[C@H](C(=O)O)[C@@H](O)[C@H](O)[C@H]1O)c1ccccc1 (stereo partly drawn) [mandelonitrile β-D-glucuronic acid, Mandelonitrile β-D-glucuronic acid]
- Time of all the deaths of all the groups after dosing ([4]; all groups, i.v.): ≤ 3 h
- maximum safe dose ([4]; believed, from the rabbit data): ~0.44 ml/kg body weight
- acute median lethal intravenous dose (LD 50) ([4]; females): 0.6873 (0.6442-0.7304) ml/kg body weight
- Mortality ratio ([4]; females, i.v., 0.44 ml/kg): 0/5
- Mortality ratio ([4]; females, i.v., 0.66 ml/kg): 2/5
- Time of death after dosing: No of hours ([4]; females, i.v., 0.66 ml/kg): < 3 h
- Time of death after dosing: No. of animals ([4]; females, i.v., 0.66 ml/kg): 2 animals
- Mortality ratio ([4]; females, i.v., 1.0 ml/kg): 5/5
- Time of death after dosing: No of hours ([4]; females, i.v., 1.0 ml/kg): < 3 h
- Time of death after dosing: No. of animals ([4]; females, i.v., 1.0 ml/kg): 5 animals
- Mortality ratio ([4]; females, i.v., 1.5 ml/kg): 5/5
- Time of death after dosing: No of hours ([4]; females, i.v., 1.5 ml/kg): < 3 h
- Time of death after dosing: No. of animals ([4]; females, i.v., 1.5 ml/kg): 5 animals
- Mortality ratio ([4]; females, i.v., 2.25 ml/kg): 5/5
- Time of death after dosing: No of hours ([4]; females, i.v., 2.25 ml/kg): < 3 h
- Time of death after dosing: No. of animals ([4]; females, i.v., 2.25 ml/kg): 5 animals
- Clinical symptoms of surviving animals ([4]; following 14 days): did not show any clinical symptoms
- Autopsy of all animals ([4]; gross pathology): did not show clear gross pathological changes
- acute median lethal intravenous dose (LD 50) ([4]; males): 0.8419 (0.7809-0.9029) ml/kg body weight
- Mortality ratio ([4]; males, i.v., 0.44 ml/kg): 0/5
- Mortality ratio ([4]; males, i.v., 0.66 ml/kg): 2/5
- Time of death after dosing: No of hours ([4]; males, i.v., 0.66 ml/kg): < 3 h
- Time of death after dosing: No. of animals ([4]; males, i.v., 0.66 ml/kg): 2 animals
- Mortality ratio ([4]; males, i.v., 1.0 ml/kg): 3/5
- Time of death after dosing: No of hours ([4]; males, i.v., 1.0 ml/kg): < 3 h
- Time of death after dosing: No. of animals ([4]; males, i.v., 1.0 ml/kg): 3 animals
- Mortality ratio ([4]; males, i.v., 1.5 ml/kg): 4/5
- Time of death after dosing: No of hours ([4]; males, i.v., 1.5 ml/kg): < 3 h
- Time of death after dosing: No. of animals ([4]; males, i.v., 1.5 ml/kg): 4 animals
- Mortality ratio ([4]; males, i.v., 2.25 ml/kg): 5/5
- Time of death after dosing: No of hours ([4]; males, i.v., 2.25 ml/kg): < 3 h
- Time of death after dosing: No. of animals ([4]; males, i.v., 2.25 ml/kg): 5 animals
- Signs of reaction to treatment ([4]; observed 2 minutes after dosing, i.v.): ataxia and paralysis
- Early deaths ([4]; two minutes after the signs of reaction, high dose group): a few animals of the high dose group died
- Mortality ratio ([5]; 0.25 ml/kg): 0/2
- Mortality ratio ([5]; 0.5 ml/kg): 1/2
- Mortality ratio ([5]; 1.0 ml/kg): 2/2
- Mortality ratio ([5]; 2.0 ml/kg): 2/2
- Mortality ratio ([5]; 4.0 ml/kg): 2/2
- median lethal intravenous dose (LD-50) ([5]; rabbits, preliminary range finding): 0.23-2 ml per kg body weight

Compound: C[C@]12CC[C@H]3[C@@H](CCC4=CC(=O)CC[C@@]43C)[C@@H]1CC[C@@H]2O [testosterone]
- β-glucuronidase activity in trophoblastic cells (trophoblastic cells): induce β-glucuronidase activity

Compound: Neomycin
- known adverse effect [6]: cannot be administered internally because of its toxicity
